Data from PubChem BioAssay (NCI).
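The compound was tested at five concentrations on cells cultured in 96-well plates, with a 48-hour exposure period. At the TGI there is no net growth.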

Assays:
Assay in all cases: NCI tumour cell line growth inhibition, 48 h
KM12 colon = test system: KM12 colon
EKVX NSCLC = test system: EKVX NSCLC
OVCAR-5 ovarian = test system: OVCAR-5 ovarian
SNB-78 CNS = test system: SNB-78 CNS
SF-295 CNS = test system: SF-295 CNS
HCC-2998 colon = test system: HCC-2998 colon
SNB-75 CNS = test system: SNB-75 CNS
TK-10 renal = test system: TK-10 renal
786-0 renal = test system: 786-0 renal
IGROV1 ovarian = test system: IGROV1 ovarian
SW-620 colon = test system: SW-620 colon
SF-268 CNS = test system: SF-268 CNS
M19-MEL melanoma = test system: M19-MEL melanoma
KM20L2 colon = test system: KM20L2 colon
NCI-H226 lung = test system: NCI-H226 lung
HCT-15 colon = test system: HCT-15 colon
DMS 273 small cell lung = test system: DMS 273 small cell lung
COLO 205 colon = test system: COLO 205 colon
SK-MEL-28 melanoma = test system: SK-MEL-28 melanoma
OVCAR-4 ovarian = test system: OVCAR-4 ovarian
UO-31 renal = test system: UO-31 renal
RXF-631 renal = test system: RXF-631 renal
A549 NSCLC = test system: A549 NSCLC
K-562 leukemia = test system: K-562 leukemia
U251 CNS = test system: U251 CNS
HT29 colon = test system: HT29 colon
NCI-H23 lung = test system: NCI-H23 lung
M14 melanoma = test system: M14 melanoma
SN12C renal = test system: SN12C renal
SK-MEL-2 melanoma = test system: SK-MEL-2 melanoma
CAKI-1 renal = test system: CAKI-1 renal
LOX IMVI melanoma = test system: LOX IMVI melanoma
OVCAR-8 ovarian = test system: OVCAR-8 ovarian
RPMI-8226 leukemia = test system: RPMI-8226 leukemia
MALME-3M melanoma = test system: MALME-3M melanoma
OVCAR-3 ovarian = test system: OVCAR-3 ovarian
HOP-92 NSCLC = test system: HOP-92 NSCLC
HCT-116 colon = test system: HCT-116 colon
SK-OV-3 ovarian = test system: SK-OV-3 ovarian
NCI-H460 lung = test system: NCI-H460 lung
DMS 114 small cell lung = test system: DMS 114 small cell lung
ACHN renal = test system: ACHN renal
DLD-1 colon = test system: DLD-1 colon
UACC-62 melanoma = test system: UACC-62 melanoma
XF 498 CNS = test system: XF 498 CNS
HOP-62 NSCLC = test system: HOP-62 NSCLC
SF-539 CNS = test system: SF-539 CNS
RXF 393 renal = test system: RXF 393 renal
LXFL 529 NSCLC = test system: LXFL 529 NSCLC
SNB-19 CNS = test system: SNB-19 CNS
UACC-257 melanoma = test system: UACC-257 melanoma
MOLT-4 leukemia = test system: MOLT-4 leukemia
HL-60(TB) leukemia = test system: HL-60(TB) leukemia
CCRF-CEM leukemia = test system: CCRF-CEM leukemia
HOP-18 NSCLC = test system: HOP-18 NSCLC
NCI-H522 lung = test system: NCI-H522 lung
SK-MEL-5 melanoma = test system: SK-MEL-5 melanoma
A498 renal = test system: A498 renal
SR leukemia = test system: SR leukemia

## Cc1ccc(NC(=O)C(=O)Cc2nc3ccccc3o2)c(C)c1
KM12 colon
  TGI: > 100 µM
EKVX NSCLC
  TGI: > 100 µM
OVCAR-5 ovarian
  TGI: > 100 µM
SNB-78 CNS
  TGI: > 100 µM
SF-295 CNS
  TGI: > 100 µM
HCC-2998 colon
  TGI: > 100 µM
SNB-75 CNS
  TGI: > 100 µM
TK-10 renal
  TGI: > 100 µM
786-0 renal
  TGI: > 100 µM
IGROV1 ovarian
  TGI: > 100 µM
SW-620 colon
  TGI: > 100 µM
SF-268 CNS
  TGI: > 100 µM
M19-MEL melanoma
  TGI: > 100 µM
KM20L2 colon
  TGI: > 100 µM
NCI-H226 lung
  TGI: > 100 µM
HCT-15 colon
  TGI: > 100 µM
DMS 273 small cell lung
  TGI: > 100 µM
COLO 205 colon
  TGI: > 100 µM
SK-MEL-28 melanoma
  TGI: > 100 µM
OVCAR-4 ovarian
  TGI: > 100 µM
UO-31 renal
  TGI: > 100 µM
RXF-631 renal
  TGI: > 100 µM
A549 NSCLC
  TGI: > 100 µM
K-562 leukemia
  TGI: > 100 µM
U251 CNS
  TGI: > 100 µM
HT29 colon
  TGI: > 100 µM
NCI-H23 lung
  TGI: > 100 µM
M14 melanoma
  TGI: > 100 µM
SN12C renal
  TGI: > 100 µM
SK-MEL-2 melanoma
  TGI: > 100 µM
CAKI-1 renal
  TGI: > 100 µM
LOX IMVI melanoma
  TGI: > 100 µM
OVCAR-8 ovarian
  TGI: > 100 µM
RPMI-8226 leukemia
  TGI: > 100 µM
MALME-3M melanoma
  TGI: > 100 µM
OVCAR-3 ovarian
  TGI: > 100 µM
HOP-92 NSCLC
  TGI: > 100 µM
HCT-116 colon
  TGI: > 100 µM
SK-OV-3 ovarian
  TGI: > 100 µM
NCI-H460 lung
  TGI: > 100 µM
DMS 114 small cell lung
  TGI: > 100 µM
ACHN renal
  TGI: > 100 µM
DLD-1 colon
  TGI: > 100 µM
UACC-62 melanoma
  TGI: > 100 µM
XF 498 CNS
  TGI: > 100 µM
HOP-62 NSCLC
  TGI: > 100 µM
SF-539 CNS
  TGI: > 100 µM
RXF 393 renal
  TGI: > 100 µM
LXFL 529 NSCLC
  TGI: > 100 µM
SNB-19 CNS
  TGI: > 100 µM
UACC-257 melanoma
  TGI: > 100 µM

## Fc1ccccc1C1CC(C(c2ccccc2)c2ccccc2)=Nc2ccccc2S1 (centres undefined)
KM12 colon
  TGI: 23.1 µM
EKVX NSCLC
  TGI: 24.5 µM
OVCAR-5 ovarian
  TGI: 33.6 µM
MOLT-4 leukemia
  TGI: 11 µM
SF-295 CNS
  TGI: 26.5 µM
HCC-2998 colon
  TGI: 17.6 µM
HL-60(TB) leukemia
  TGI: 16.6 µM
SNB-75 CNS
  TGI: 5.48 µM
TK-10 renal
  TGI: 25.2 µM
786-0 renal
  TGI: 16.2 µM
IGROV1 ovarian
  TGI: 28.8 µM
CCRF-CEM leukemia
  TGI: 5.57 µM
SW-620 colon
  TGI: 31 µM
SF-268 CNS
  TGI: 26.1 µM
KM20L2 colon
  TGI: 27.6 µM
NCI-H226 lung
  TGI: 32.6 µM
HCT-15 colon
  TGI: 30.8 µM
DMS 273 small cell lung
  TGI: 20.9 µM
COLO 205 colon
  TGI: 27.9 µM
SK-MEL-28 melanoma
  TGI: 25.1 µM
HOP-18 NSCLC
  TGI: 31.4 µM
OVCAR-4 ovarian
  TGI: 32.9 µM
NCI-H522 lung
  TGI: 21.7 µM
SK-MEL-5 melanoma
  TGI: 24.9 µM
UO-31 renal
  TGI: 28.8 µM
RXF-631 renal
  TGI: 27.2 µM
A549 NSCLC
  TGI: 46.4 µM
K-562 leukemia
  TGI: 10.6 µM
U251 CNS
  TGI: 25.5 µM
HT29 colon
  TGI: 26.3 µM
NCI-H23 lung
  TGI: 24.7 µM
M14 melanoma
  TGI: 25.7 µM
SN12C renal
  TGI: 26 µM
SK-MEL-2 melanoma
  TGI: 21.6 µM
CAKI-1 renal
  TGI: 20.1 µM
LOX IMVI melanoma
  TGI: 19.7 µM
OVCAR-8 ovarian
  TGI: 48.5 µM
RPMI-8226 leukemia
  TGI: 25 µM
MALME-3M melanoma
  TGI: 29.5 µM
OVCAR-3 ovarian
  TGI: 24.4 µM
SK-OV-3 ovarian
  TGI: 68.6 µM
NCI-H460 lung
  TGI: 23.2 µM
DMS 114 small cell lung
  TGI: 23.6 µM
ACHN renal
  TGI: 43.6 µM
DLD-1 colon
  TGI: 23.6 µM
UACC-62 melanoma
  TGI: 18.7 µM
XF 498 CNS
  TGI: 27.1 µM
HOP-62 NSCLC
  TGI: 26.9 µM
SF-539 CNS
  TGI: 50.4 µM
A498 renal
  TGI: 20 µM
RXF 393 renal
  TGI: 17.2 µM
LXFL 529 NSCLC
  TGI: 15.3 µM
SNB-19 CNS
  TGI: 32.2 µM
UACC-257 melanoma
  TGI: 30.6 µM

## CCOC(=O)C(C[Si](C)(C)C)P(=O)(OCC)OCC (centres undefined)
KM12 colon
  TGI: > 100 µM
OVCAR-5 ovarian
  TGI: > 100 µM
SNB-78 CNS
  TGI: > 100 µM
MOLT-4 leukemia
  TGI: > 100 µM
SF-295 CNS
  TGI: > 100 µM
HCC-2998 colon
  TGI: > 100 µM
HL-60(TB) leukemia
  TGI: > 100 µM
SNB-75 CNS
  TGI: > 100 µM
TK-10 renal
  TGI: > 100 µM
786-0 renal
  TGI: > 100 µM
IGROV1 ovarian
  TGI: > 100 µM
CCRF-CEM leukemia
  TGI: > 100 µM
SW-620 colon
  TGI: > 100 µM
SF-268 CNS
  TGI: > 100 µM
M19-MEL melanoma
  TGI: > 100 µM
KM20L2 colon
  TGI: > 100 µM
NCI-H226 lung
  TGI: > 100 µM
HCT-15 colon
  TGI: > 100 µM
DMS 273 small cell lung
  TGI: > 100 µM
COLO 205 colon
  TGI: > 100 µM
SK-MEL-28 melanoma
  TGI: > 100 µM
OVCAR-4 ovarian
  TGI: > 100 µM
NCI-H522 lung
  TGI: > 100 µM
SK-MEL-5 melanoma
  TGI: > 100 µM
UO-31 renal
  TGI: > 100 µM
RXF-631 renal
  TGI: > 100 µM
A549 NSCLC
  TGI: > 100 µM
K-562 leukemia
  TGI: > 100 µM
U251 CNS
  TGI: > 100 µM
HT29 colon
  TGI: > 100 µM
NCI-H23 lung
  TGI: > 100 µM
M14 melanoma
  TGI: > 100 µM
SR leukemia
  TGI: > 100 µM
SN12C renal
  TGI: > 100 µM
CAKI-1 renal
  TGI: > 100 µM
LOX IMVI melanoma
  TGI: > 100 µM
OVCAR-8 ovarian
  TGI: > 100 µM
RPMI-8226 leukemia
  TGI: > 100 µM
MALME-3M melanoma
  TGI: > 100 µM
OVCAR-3 ovarian
  TGI: > 100 µM
HOP-92 NSCLC
  TGI: > 100 µM
HCT-116 colon
  TGI: > 100 µM
SK-OV-3 ovarian
  TGI: > 100 µM
NCI-H460 lung
  TGI: > 100 µM
DMS 114 small cell lung
  TGI: > 100 µM
ACHN renal
  TGI: > 100 µM
DLD-1 colon
  TGI: > 100 µM
UACC-62 melanoma
  TGI: > 100 µM
XF 498 CNS
  TGI: > 100 µM
HOP-62 NSCLC
  TGI: > 100 µM
SF-539 CNS
  TGI: > 100 µM
RXF 393 renal
  TGI: > 100 µM
LXFL 529 NSCLC
  TGI: > 100 µM
UACC-257 melanoma
  TGI: > 100 µM
